Reference: US20240285528A1, “NANO-MOLECULE AGGREGATE CONSISTING OF ORGANIC MATERIAL, INORGANIC MATERIAL OR SALT THEREOF AND PREPARATION METHOD THEREFOR” (SCAI THERAPEUTICS CO., LTD., priority 2021, published 2024)

Test: Aqueous solubility (dispersity) by HPLC after stirring and filtration
Type: physicochemical
Settings: water, stirred at 25° C. for 10 hours, 0.2 micron filter
In the case of `CC(=O)Oc1cc2c(cc1Cl)C(c1ccccc1C(=O)O)c1cc(Cl)c(OC(C)=O)cc1O2` [DCF-DA, 2′, 7′-dichlorofluorescin diacetate], the “Aqueous solubility (dispersity)” value is reported as 0.004 % (wt/v). With `C=CC[C@@H]1/C=C(\C)C[C@H](C)C[C@H](OC)[C@H]2O[C@@](O)(C(=O)C(=O)N3CCCC[C@H]3C(=O)O[C@H](/C(C)=C/[C@@H]3CC[C@@H](O)[C@H](OC)C3)[C@H](C)[C@@H](O)CC1=O)[C@H](C)C[C@@H]2OC` [Tacrolimus, tacrolimus] the “Aqueous solubility (dispersity)” value was 7.6 % (wt/v). In the case of `O=C(Nc1ccc([N+](=O)[O-])cc1Cl)c1cc(Cl)ccc1O` [Niclosamide, niclosamide], the “Aqueous solubility (dispersity)” value is reported as 0.0033 % (wt/v). With `Nc1ncnc2c1ncn2[C@@H]1O[C@H](CO)[C@@H](O)[C@H]1O` [Adenosine, adenosine] the “Aqueous solubility (dispersity)” value was 0.27 % (wt/v). In the case of `C=C1CCN([C@H](C)[C@](O)(Cn2cncn2)c2ccc(F)cc2F)CC1` [Epinaconazole, epinaconazole], the “Aqueous solubility (dispersity)” value is reported as 0.321 % (wt/v).
